Source: US20260317344A1, “EGFR INHIBITORS FOR TREATING DISEASE” (BLOSSOMHILL THERAPEUTICS, INC., priority 2023, published 2026)

What was measured:
HCC827 cells = assay: 5-Day CellTiter Glo (CTG) cell proliferation assay, HCC827; type: cell-based; details: Homo sapiens; HCC827 cells (d746-750 EGFR), 5-day CTG proliferation, 120 hours; read-out: HCC827 IC50
Method in brief: (§1)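 Proliferation of EGFR-driven NSCLC cells was scored as CellTiter-Glo 2.0 luminescence after a 5-day (120 h) incubation with compounds in 9 doses. IC50 values came from the dose-response curves.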

NCI-H1975 cells = assay: 5-Day CellTiter Glo (CTG) cell proliferation assay, NCI-H1975; type: cell-based; details: Homo sapiens; NCI-H1975 cells (L858R/T790M EGFR), 5-day CTG proliferation, 120 hours; read-out: H1975 IC50
Method in brief: as §1

EGFR (D770_N771insNPG) = EGFR (D770_N771insNPG) (Homo sapiens, UniProt P00533, INS770NPG); assay: HotSpot radiometric kinase assay, inhibition of EGFR (D770_N771insNPG) mutant; type: biochemical; details: 33P ATP, room temperature, 120 m
Procedure: (§2) Biochemical Assays for inhibition of wild-type and mutant EGFRs
(§3) Briefly, specific kinase/substrate pairs along with required cofactors were prepared in reaction buffer; 20 mM HEPES pH 7.5, 10 mM […], 1 mM EGTA, 0.02% Brij35, 0.02 mg/ml BSA, 0.1 mM Na3VO4, 2 mM DTT, 1% DMSO. Compounds were delivered into the reaction, followed ~20 minutes later by addition of a mixture of ATP (Sigma, St. Louis MO) and ^33P ATP (Perkin Elmer, Waltham MA) to a final concentration of […]. Reactions were carried out at room temperature for 120 m, followed by spotting of the reactions onto P81 ion exchange filter paper (Whatman Inc., Piscataway, NJ). Unbound phosphate was removed by extensive washing of filters in 0.75% phosphoric acid. […] IC50 values and curve fits were obtained using Prism (GraphPad Software).

EGFR (L858R/T790M/C797S) = EGFR (L858R/T790M/C797S) (Homo sapiens, UniProt P00533, C797S/L858R/T790M); assay: HotSpot radiometric kinase assay, inhibition of EGFR L858R/T790M/C797S mutant; type: biochemical; details: 33P ATP, room temperature, 120 m
Procedure: as §2, §3

EGFR (D746-750/C797S) = EGFR (D746-750/C797S) (Homo sapiens, UniProt P00533, C797S/DEL746-750); assay: HotSpot radiometric kinase assay, inhibition of EGFR 746-750/C797S mutant; type: biochemical; details: 33P ATP, room temperature, 120 m
Procedure: as §2, §3

[1] = biological target: T1, pEGFR, NCI-H1975 cells (L858R/T790M EGFR) (Homo sapiens, UniProt P00533, L858R/T790M); assay: Cellular EGFR phosphorylation assay (LANCE Ultra TR-FRET) in NCI-H1975 cells; type: cell-based; details: 4 hours at 37° C., read-out: H1975 pEGFR IC50
T1 construct: pEGFR (Tyr1068) TR-FRET
Procedure: (§4) Cellular EGFR Phosphorylation Assays
(§5) EGFR phosphorylation assays were conducted in NSCLC cells with EGFR activation mutations. PC-9 cells (purchased from Aldrich-Sigma) carry a Glu746-Ala750 deletion (d746-750) mutation in exon 19 of the EGFR gene and NCI-H1975 cells (purchased from ATCC) carry both L858R activation mutation and T790M gatekeeper mutation in the EGFR gene. A431 cells (purchased from ATCC) with amplification of wildtype EGFR, derived from epidermoid carcinoma, were used to measure the activity against wildtype EGFR. All cells were seeded in 96-well plates. For PC-9 and NCI-H1975 cells, 50 thousand cells were seeded per well. For A431 cells, 30 thousand cells were seeded per well. The next day, cells were exposed to compound for 4 hours at 37° C. and 5% CO2. Compounds were diluted in DMSO and added to cells in a 9-dose, 3-fold dilution, titration curve using TECAN d300e liquid dispenser. For A431 cells, 40 ng/mL of EGF was added to the media for the final 10 minutes of incubation. EGFR phosphorylation was measured using phospho-EGFR (Try1068) LANCE Ultra TR-FRET Detection Kit (TRF4015M) from PerkinElmer according to manufacturer's instructions. In brief, cells were lysed with 40 μL of lysis buffer plus 1× Halt protease and phosphatase inhibitor cocktail (Thermo 78441) and by incubation at room temperature for 1 h on a microplate shaker (350 rpm). 15 μ L of cell lysate was transferred to 384-well white plate and 5 μL of Europium- and ULight-labeled antibodies diluted in 1× detection buffer was added to each well. After 4-6 hours of incubation at room temperature, plates were then read on a TECAN Sparks multimode microplate reader. Data was analyzed using GraphPad Prism 9 (GraphPad Software, San Diego, CA) to obtain IC50 values.

[2] = biological target: T2, pEGFR, A431 cells (wildtype EGFR) (Homo sapiens, UniProt P00533); assay: Cellular EGFR phosphorylation assay (LANCE Ultra TR-FRET) in A431 cells; type: cell-based; details: 4 hours at 37° C., 40 ng/mL EGF for the final 10 minutes, read-out: A431 pEGFR IC50
T2 construct: pEGFR (Tyr1068) TR-FRET
Procedure: as §4, §5

[3] = biological target: T3, pEGFR, PC-9 cells (d746-750 EGFR) (Homo sapiens, UniProt P00533, DEL746-750); assay: Cellular EGFR phosphorylation assay (LANCE Ultra TR-FRET) in PC-9 cells; type: cell-based; details: 4 hours at 37° C., read-out: PC-9 pEGFR IC50
T3 construct: pEGFR (Tyr1068) TR-FRET
Procedure: as §4, §5

PC-9 cells = assay: 5-Day CellTiter Glo (CTG) cell proliferation assay, PC-9; type: cell-based; details: Homo sapiens; PC-9 cells (d746-750 EGFR), 5-day CTG proliferation, 120 hours; read-out: PC-9 IC50
Method in brief: as §1

EGFR (D746-750) = EGFR (D746-750) (Homo sapiens, UniProt P00533, DEL746-750); assay: HotSpot radiometric kinase assay, inhibition of EGFR 746-750 mutant; type: biochemical; details: 33P ATP, room temperature, 120 m
Procedure: as §2, §3

T3 sequence (P00533 with tags, fused parts or gaps DEL746-750): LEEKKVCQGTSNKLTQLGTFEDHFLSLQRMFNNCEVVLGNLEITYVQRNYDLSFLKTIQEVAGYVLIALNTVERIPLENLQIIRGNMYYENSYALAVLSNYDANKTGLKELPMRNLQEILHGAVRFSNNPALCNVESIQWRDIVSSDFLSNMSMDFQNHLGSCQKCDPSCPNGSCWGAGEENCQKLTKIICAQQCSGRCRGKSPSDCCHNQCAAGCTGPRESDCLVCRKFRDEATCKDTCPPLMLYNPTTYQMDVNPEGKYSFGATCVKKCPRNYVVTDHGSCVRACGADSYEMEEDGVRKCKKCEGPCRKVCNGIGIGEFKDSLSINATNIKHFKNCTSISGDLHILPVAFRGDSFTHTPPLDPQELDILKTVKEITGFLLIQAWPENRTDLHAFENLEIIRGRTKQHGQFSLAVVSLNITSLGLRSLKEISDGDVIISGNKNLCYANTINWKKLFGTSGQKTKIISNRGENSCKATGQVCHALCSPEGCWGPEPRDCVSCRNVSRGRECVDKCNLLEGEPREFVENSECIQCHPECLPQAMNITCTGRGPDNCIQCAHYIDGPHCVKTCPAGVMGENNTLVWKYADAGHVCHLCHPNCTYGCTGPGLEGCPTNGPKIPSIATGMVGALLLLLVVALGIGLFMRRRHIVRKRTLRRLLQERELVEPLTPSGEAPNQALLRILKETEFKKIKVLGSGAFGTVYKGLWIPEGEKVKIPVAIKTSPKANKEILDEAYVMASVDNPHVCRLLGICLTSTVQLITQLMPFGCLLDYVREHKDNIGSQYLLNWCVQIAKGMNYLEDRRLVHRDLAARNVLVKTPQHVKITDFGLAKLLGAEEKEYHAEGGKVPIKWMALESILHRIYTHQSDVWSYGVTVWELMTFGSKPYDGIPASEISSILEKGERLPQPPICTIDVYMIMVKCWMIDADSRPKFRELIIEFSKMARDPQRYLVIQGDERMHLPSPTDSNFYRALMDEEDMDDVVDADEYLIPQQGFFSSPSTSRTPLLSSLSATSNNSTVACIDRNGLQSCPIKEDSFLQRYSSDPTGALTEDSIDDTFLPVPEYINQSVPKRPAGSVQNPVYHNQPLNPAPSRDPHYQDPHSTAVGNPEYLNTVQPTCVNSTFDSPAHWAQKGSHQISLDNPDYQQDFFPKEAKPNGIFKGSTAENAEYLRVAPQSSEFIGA
Chain of EGFR (D746-750) (P00533 with tags, fused parts or gaps DEL746-750): as above
T1 sequence (P00533 25-1210 T790M/L858R): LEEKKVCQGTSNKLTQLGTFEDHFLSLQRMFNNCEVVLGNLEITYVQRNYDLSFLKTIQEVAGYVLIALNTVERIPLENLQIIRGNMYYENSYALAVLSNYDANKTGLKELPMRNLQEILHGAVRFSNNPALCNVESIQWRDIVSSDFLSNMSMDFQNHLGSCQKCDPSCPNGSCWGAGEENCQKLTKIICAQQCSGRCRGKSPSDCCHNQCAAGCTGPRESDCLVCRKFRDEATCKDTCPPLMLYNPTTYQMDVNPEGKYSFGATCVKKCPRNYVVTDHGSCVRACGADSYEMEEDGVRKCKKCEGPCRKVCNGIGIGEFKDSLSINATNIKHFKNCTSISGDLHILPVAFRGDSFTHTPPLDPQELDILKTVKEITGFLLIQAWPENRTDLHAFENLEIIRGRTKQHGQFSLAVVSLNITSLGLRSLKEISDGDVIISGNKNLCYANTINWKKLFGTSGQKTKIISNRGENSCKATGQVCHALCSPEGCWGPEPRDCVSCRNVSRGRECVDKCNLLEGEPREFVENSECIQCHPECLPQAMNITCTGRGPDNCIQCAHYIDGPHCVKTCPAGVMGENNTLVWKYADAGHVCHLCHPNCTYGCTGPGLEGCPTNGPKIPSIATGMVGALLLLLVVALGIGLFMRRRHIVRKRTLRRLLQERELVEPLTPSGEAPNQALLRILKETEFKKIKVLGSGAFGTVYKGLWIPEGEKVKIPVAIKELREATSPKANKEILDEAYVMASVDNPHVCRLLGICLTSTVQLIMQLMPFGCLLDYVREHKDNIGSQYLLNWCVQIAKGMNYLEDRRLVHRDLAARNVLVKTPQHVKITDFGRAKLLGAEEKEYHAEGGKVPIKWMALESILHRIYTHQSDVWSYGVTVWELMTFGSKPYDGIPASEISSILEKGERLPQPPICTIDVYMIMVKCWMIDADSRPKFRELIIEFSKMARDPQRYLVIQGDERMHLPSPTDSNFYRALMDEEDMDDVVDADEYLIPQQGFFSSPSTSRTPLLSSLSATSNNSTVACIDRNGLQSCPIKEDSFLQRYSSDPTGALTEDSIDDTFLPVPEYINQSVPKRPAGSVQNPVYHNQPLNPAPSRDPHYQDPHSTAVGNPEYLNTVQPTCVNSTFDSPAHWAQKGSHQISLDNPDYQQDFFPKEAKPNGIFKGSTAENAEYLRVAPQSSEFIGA
Chain of EGFR (D770_N771insNPG) (P00533 with tags, fused parts or gaps INS770NPG limits assumed): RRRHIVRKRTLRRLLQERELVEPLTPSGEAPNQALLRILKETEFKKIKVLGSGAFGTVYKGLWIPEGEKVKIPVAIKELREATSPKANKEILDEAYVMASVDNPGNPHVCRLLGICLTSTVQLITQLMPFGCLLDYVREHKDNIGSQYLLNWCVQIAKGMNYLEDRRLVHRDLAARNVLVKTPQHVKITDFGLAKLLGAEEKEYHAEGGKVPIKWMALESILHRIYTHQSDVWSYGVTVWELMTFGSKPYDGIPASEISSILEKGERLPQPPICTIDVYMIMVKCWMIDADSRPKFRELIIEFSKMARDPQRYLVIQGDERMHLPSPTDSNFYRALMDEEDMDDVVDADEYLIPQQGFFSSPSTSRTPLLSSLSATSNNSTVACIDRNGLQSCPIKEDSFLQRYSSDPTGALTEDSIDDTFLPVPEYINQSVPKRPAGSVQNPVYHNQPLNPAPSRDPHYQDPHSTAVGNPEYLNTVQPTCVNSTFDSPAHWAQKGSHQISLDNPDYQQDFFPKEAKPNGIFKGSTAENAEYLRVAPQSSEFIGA

Question: For `CCOc1nn(CCO)c2c1/C=C/c1n[nH]c3cnc(cc13)-c1c(C)nn(C)c1OCCN(C)C2` [Ex. 68, 2-[(17E)-16-ethoxy-6,8,12-trimethyl-2,8,10,11,12,13-hexahydro-14H-5,3-(azenometheno)tripyrazolo[3,4-f:3′,4′-j:4″,3″-n][1,4]oxazacyclopentadecin-14-yl]ethan-1-ol], which IC50 (HCC827 cells) is on record?
Answer: The IC50 was 2.49 nM.

Question: And the IC50 (NCI-H1975 cells)?
Answer: The IC50 was 227 nM.

Question: What about the IC50 (EGFR (D770_N771insNPG)) of the same compound?
Answer: The IC50 was 0.95 nM.

Question: What about the IC50 (EGFR (L858R/T790M/C797S)) of the same compound?
Answer: Its IC50 is 0.44 nM.

Question: What about the IC50 (EGFR (D746-750/C797S)) of the same compound?
Answer: Its IC50 is 1.18 nM.

Question: What about the IC50 [1] of the same compound?
Answer: The IC50 was 6.39 nM.

Question: And the IC50 [2]?
Answer: Its IC50 is 21 nM.

Question: What about the IC50 [3] of the same compound?
Answer: The IC50 was 6.22 nM.

Question: And the IC50 (PC-9 cells)?
Answer: The IC50 was 15.4 nM.

Question: What about the IC50 (EGFR (D746-750)) of the same compound?
Answer: The IC50 was 0.33 nM.

Question: With `CCOc1nn([C@@H](C)CO)c2c1/C=C/c1n[nH]c3cnc(cc13)-c1c(C)nn(C)c1OC[C@H]1CCCN1C2` [Ex. 65, (2S)-2-[(8aR,19E)-1-ethoxy-11,13-dimethyl-7,8,8a,9,11,17-hexahydro-6H-14,16-(azenometheno)tripyrazolo[3,4-f:3′,4′-j:4″,3″-n]pyrrolo[2,1-c][1,4]oxazacyclopentadecin-3(4H)-yl]propan-1-ol] as the compound, how does the IC50 (HCC827 cells) read?
Answer: Its IC50 is 0.63 nM.

Question: And the IC50 (NCI-H1975 cells)?
Answer: Its IC50 is 5.36 nM.

Question: And the IC50 (EGFR (D770_N771insNPG))?
Answer: Its IC50 is 0.99 nM.

Question: What about the IC50 (EGFR (L858R/T790M/C797S)) of the same compound?
Answer: Its IC50 is 1.58 nM.

Question: And the IC50 (EGFR (D746-750/C797S))?
Answer: The IC50 was 1.61 nM.

Question: And the IC50 [1]?
Answer: Its IC50 is 1.56 nM.

Question: What about the IC50 [2] of the same compound?
Answer: Its IC50 is 15.8 nM.

Question: And the IC50 [3]?
Answer: Its IC50 is 1.11 nM.

Question: What about the IC50 (PC-9 cells) of the same compound?
Answer: Its IC50 is 1.6 nM.

Question: What about the IC50 (EGFR (D746-750)) of the same compound?
Answer: Its IC50 is 0.61 nM.

Question: How did the IC50 (HCC827 cells) turn out when `CCOc1nn(CCO)c2c1/C=C/c1n[nH]c3cnc(cc13)-c1c(c(C)nn1C)OCCN(C)C2` [Ex. 69, 2-[(17E)-16-ethoxy-6,8,12-trimethyl-2,6,10,11,12,13-hexahydro-14H-5,3-(azenometheno)tripyrazolo[3,4-f:3′,4′-j:3″,4″-n][1,4]oxazacyclopentadecin-14-yl]ethan-1-ol] was run?
Answer: The IC50 was 41.9 nM.

Question: What about the IC50 (NCI-H1975 cells) of the same compound?
Answer: The IC50 was 308 nM.

Question: And the IC50 (EGFR (D770_N771insNPG))?
Answer: Its IC50 is 15.3 nM.

Question: What about the IC50 (EGFR (L858R/T790M/C797S)) of the same compound?
Answer: The IC50 was 1.93 nM.

Question: What about the IC50 (EGFR (D746-750/C797S)) of the same compound?
Answer: The IC50 was 3.68 nM.

Question: And the IC50 [1]?
Answer: The IC50 was 262 nM.

Question: What about the IC50 [2] of the same compound?
Answer: Its IC50 is 160 nM.

Question: What about the IC50 [3] of the same compound?
Answer: Its IC50 is 75.4 nM.

Question: And the IC50 (PC-9 cells)?
Answer: The IC50 was 92 nM.

Question: What about the IC50 (EGFR (D746-750)) of the same compound?
Answer: The IC50 was 1.87 nM.

Question: Which results are given for `Cc1nn(C)c2c1-c1cc3c(n[nH]c3cn1)/C=C/c1c(OCC#N)nn([C@@H](C)CO)c1CN1CCC[C@@H]1CO2` [Ex. 64, {[(8aR,19E)-3-[(2S)-1-hydroxypropan-2-yl]-11,13-dimethyl-3,4,7,8,8a,9,11,17-octahydro-6H-14,16-(azenometheno)tripyrazolo[3,4-f:3′,4′-j:4″,3″-n]pyrrolo[2,1-c][1,4]oxazacyclopentadecin-1-yl]oxy}acetonitrile]?
Answer: IC50 (HCC827 cells): 1.02 nM; IC50 (NCI-H1975 cells): 26.6 nM; IC50 (EGFR (D770_N771insNPG)): 0.42 nM; IC50 (EGFR (L858R/T790M/C797S)): 0.82 nM; IC50 (EGFR (D746-750/C797S)): 1.2 nM; IC50 [1]: 2.79 nM; IC50 [2]: 29.6 nM; IC50 [3]: 2.74 nM; IC50 (PC-9 cells): 5.63 nM; IC50 (EGFR (D746-750)): 0.41 nM

Question: How did the IC50 (HCC827 cells) turn out when `CCc1nn(CCO)c2c1/C=C/c1n[nH]c3cnc(cc13)-c1c(C)nn(C)c1O[C@@H](C)CN(C)C2` [Ex. 60] was run?
Answer: The IC50 was 1.77 nM.

Question: What about the IC50 (NCI-H1975 cells) of the same compound?
Answer: Its IC50 is 57.5 nM.

Question: What about the IC50 (EGFR (D770_N771insNPG)) of the same compound?
Answer: Its IC50 is 0.78 nM.

Question: What about the IC50 (EGFR (L858R/T790M/C797S)) of the same compound?
Answer: The IC50 was 0.86 nM.

Question: What about the IC50 (EGFR (D746-750/C797S)) of the same compound?
Answer: The IC50 was 1.72 nM.

Question: And the IC50 [1]?
Answer: Its IC50 is 2.49 nM.

Question: And the IC50 [2]?
Answer: Its IC50 is 29 nM.

Question: And the IC50 [3]?
Answer: Its IC50 is 2.39 nM.

Question: What about the IC50 (PC-9 cells) of the same compound?
Answer: Its IC50 is 5.05 nM.

Question: And the IC50 (EGFR (D746-750))?
Answer: The IC50 was 0.54 nM.
